The source of these data is patent publication US9301951B2 (Ardelyx, Inc., priority 2010, dated 2016).

SMILES strings stand for the structures.

The target in test [1] is T1, human NaP2b (SLC34A2) (Homo sapiens, UniProt O95436).
T1 construct: host or cells: HEK293
T1 sequence (O95436 1-690): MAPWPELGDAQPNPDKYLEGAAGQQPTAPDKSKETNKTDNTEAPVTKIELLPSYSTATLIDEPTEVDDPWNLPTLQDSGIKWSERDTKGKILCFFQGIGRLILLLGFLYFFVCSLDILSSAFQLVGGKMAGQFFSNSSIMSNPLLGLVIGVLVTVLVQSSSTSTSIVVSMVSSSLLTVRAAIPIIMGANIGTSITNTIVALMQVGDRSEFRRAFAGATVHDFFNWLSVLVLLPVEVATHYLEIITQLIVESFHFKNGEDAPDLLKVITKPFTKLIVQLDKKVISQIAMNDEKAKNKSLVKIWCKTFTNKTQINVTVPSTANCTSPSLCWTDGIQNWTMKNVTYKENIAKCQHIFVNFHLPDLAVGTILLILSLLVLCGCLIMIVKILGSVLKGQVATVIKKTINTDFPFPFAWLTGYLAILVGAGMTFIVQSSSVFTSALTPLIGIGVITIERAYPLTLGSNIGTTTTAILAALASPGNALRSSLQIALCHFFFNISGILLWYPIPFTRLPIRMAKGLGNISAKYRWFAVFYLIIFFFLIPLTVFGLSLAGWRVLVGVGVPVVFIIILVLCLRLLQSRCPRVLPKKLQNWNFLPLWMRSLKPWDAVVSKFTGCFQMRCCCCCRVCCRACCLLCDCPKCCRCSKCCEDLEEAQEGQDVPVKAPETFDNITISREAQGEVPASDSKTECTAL
Briefly: Inhibition of NaP2b-mediated Pi (33P) uptake in transfected HEK293 cells, human NaP2b. Type of test: cell-based. As to conditions: HEK293 cells transfected with human NaP2b, 100 uM phosphate, 0.1 nM to 30 uM, read-out: pIC50 range for human NaP2b (converted). As for the experimental part:
(§1) HEK293 cells were obtained from the American Type Culture collection and propagated per their instructions. Expression clones for rat and human NaP2b (SLC34A2) were obtained from Open Biosystems (Catalog numbers MRN1768-9510282, and MHS1010-99823026, respectively). The sequence of the human protein was mutated to insert a threonine after residue 37, and to introduce a N39D mutation.
The rate of phosphate (Pi) uptake into HEK293 cells was measured using a modification of the method described by Mohrmann et al. (Mohrmann, I., Mohrmann, M., Biber, J., and Murer, H. (1986) Am. J. Phys. 250(3 Pt 1):G323-30.) Transfected HEK293 cells were treated with a pharmacological agent to minimize endogenous PiT-mediated phosphate transport activity, such that the only remaining sodium-dependent phosphate transport activity is that which was bestowed by introduction of the NaP2b genes.
(§2) Cells were seeded into 96-well plates at 25,000 cells/well and cultured overnight. Lipofectamine 2000 (Invitrogen) was used to introduce the NaP2b cDNA, and the cells were allowed to approach confluence during a second overnight incubation. […] Cells were then overlayed with either choline uptake buffer or sodium uptake buffer (14 mM Tris, 137 mM sodium chloride, 5.4 mM KCl, 2.8 mM CaCl2, 1.2 mM MgSO4, 100 uM KH2PO4, PiT-silencing agent, 1 mg/mL Bovine Serum Albumin, pH 7.4) containing 6-9 uCi/mL ^33P orthophosphoric acid (Perkin Elmer) and test compound. Each compound was tested at twelve concentrations ranging from 0.1 nM to 30 uM. Assays were run in duplicate.
After incubation for 3-30 minutes at room temperature, assay mixtures were removed, and the cells were washed twice with ice cold stop solution (137 mM sodium chloride, 14 mM Tris, pH 7.4). Cells were lysed by addition of 20 μL 0.1% Tween 80 followed by 100 μL scintillation fluid, and counted using a TopCount (Perkin Elmer).
(§3) pIC50 (the negative log of the […]) values of the test compounds were calculated using GraphPad Prism.

Test [2] addresses T2, rat NaP2b (SLC34A2) (Rattus norvegicus, UniProt Q9JJ09).
T2 construct: host or cells: HEK293
T2 sequence (Q9JJ09 1-695): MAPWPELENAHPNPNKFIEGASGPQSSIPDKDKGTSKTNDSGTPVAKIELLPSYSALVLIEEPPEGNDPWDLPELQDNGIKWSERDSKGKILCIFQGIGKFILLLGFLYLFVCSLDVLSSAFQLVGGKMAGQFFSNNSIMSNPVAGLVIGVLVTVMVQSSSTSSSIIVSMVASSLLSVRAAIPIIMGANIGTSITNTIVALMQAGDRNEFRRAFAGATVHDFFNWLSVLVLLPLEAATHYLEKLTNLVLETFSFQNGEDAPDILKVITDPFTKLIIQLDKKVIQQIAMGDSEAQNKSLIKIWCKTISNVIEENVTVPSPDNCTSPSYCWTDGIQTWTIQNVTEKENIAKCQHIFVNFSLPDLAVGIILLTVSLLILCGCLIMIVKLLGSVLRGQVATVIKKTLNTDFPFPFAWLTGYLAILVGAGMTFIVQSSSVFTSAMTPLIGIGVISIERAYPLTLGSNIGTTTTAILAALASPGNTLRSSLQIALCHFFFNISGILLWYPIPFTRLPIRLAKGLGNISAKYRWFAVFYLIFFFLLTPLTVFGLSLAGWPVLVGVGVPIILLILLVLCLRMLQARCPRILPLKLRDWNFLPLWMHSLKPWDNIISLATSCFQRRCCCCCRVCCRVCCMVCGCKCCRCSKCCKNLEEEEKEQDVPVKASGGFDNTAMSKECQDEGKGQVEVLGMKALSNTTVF
Briefly: Inhibition of NaP2b-mediated Pi (33P) uptake in transfected HEK293 cells, rat NaP2b. The conditions noted are these: HEK293 cells transfected with rat NaP2b, 100 uM phosphate, 0.1 nM to 30 uM, read-out: pIC50 range for rat Nap2b (converted). Type of test: cell-based. The procedure:
as §1, §2
Cells were lysed by addition of 20 μL 0.1% Tween 80 followed by 100 μL scintillation fluid, and counted using a TopCount (Perkin Elmer).
as §3

Regarding `CCN(CC)c1ccc(NC(=O)c2cccc(CS(=O)(=O)CCOCCOCCOCCOCCC(=O)O)c2)c(-c2cc(C(=O)NCc3cccc(C(F)(F)F)c3)ccn2)c1` [Example 167, 1-(((3-((4-(diethylamino)-2-[4-(((3-(trifluoromethyl)phenyl]methyl)carbamoyl)pyridin-2-yl)phenyl)carbamoyl)phenyl)methane)sulfonyl)-3,6,9,12-tetraoxapentadecan-15-oic acid], the IC50 in test [1] and in test [2] was 10 to 31.6 µM each time.
Regarding `CCN(CC)c1ccc(NC(=O)c2cccc(COCCOCCOCCOCCOC(=O)N(CCO)CCO)c2)c(-c2cc(C(=O)NCc3cccc(C(F)(F)F)c3)ccn2)c1` [Example 176, 1-(3-(4-(diethylamino)-2-(4-(3-(trifluoromethyl)benzylcarbamoyl)pyridin-2-yl)phenylcarbamoyl)phenyl)-2,5,8,11-tetraoxamidecan-13-yl bis(2-hydroxyethyl)carbamate], the IC50 in test [1] and in test [2] was 1 to 7.94 µM each time.
Turning to `CCN(CC)c1ccc(NC(=O)c2cccc(COCCOCCOCCOCCOC(=O)NC(CO)(CO)CO)c2)c(-c2cc(C(=O)NCc3cccc(C(F)(F)F)c3)ccn2)c1` [Example 177, 1-(3-(4-(diethylamino)-2-(4-(3-(trifluoromethyl)benzylcarbamoyl)pyridin-2-yl)phenylcarbamoyl)phenyl)-2,5,8,11-tetraoxamidecan-13-yl 1,3-dihydroxy-2-(hydroxymethyl)propan-2-ylcarbamate], the IC50 in test [1] and in test [2] was 1 to 7.94 µM each time.
For the compound `CCN(CC)c1ccc(NC(=O)c2cccc(Cn3ccc4c(C(=O)NCCOCCOCCOCCC(=O)O)cccc43)c2)c(-c2cc(C(=O)N[C@H]3CCCc4ccccc43)ccn2)c1` [Example 182, (S)-1-(1-(3-(4-(diethylamino)-2-(4-(1,2,3,4-tetrahydronaphthalen-1-ylcarbamoyl)pyridin-2-yl)phenylcarbamoyl)benzyl)-1H-indol-4-yl)-1-oxo-5,8,11-trioxa-2-azatetradecan-14-oic acid], the IC50 in test [1] and in test [2] was under 1 µM in each case.
As for `CN(CCN1CCC[C@H]1C(=O)N(C)CCOCCOCCOCCC(=O)OC(C)(C)C)C(=O)c1cccc(C(=O)Nc2ccc(N3CCCCC3)cc2-c2cc(C(=O)N[C@H]3CCCc4ccccc43)ccn2)c1` [Example 190, tert-Butyl 2-methyl-1-((S)-1-(2-(N-methyl-3-((4-(piperidin-1-yl)-2-(4-(((S)-1,2,3,4-tetrahydronaphthalen-1-yl)carbamoyl)pyridin-2-yl)phenyl)carbamoyl)benzamido)ethyl)pyrrolidin-2-yl)-1-oxo-5,8,11-trioxa-2-azatetradecan-14-oate], the IC50 in test [1] was 1 to 7.94 µM.
`CCN(CC)c1ccc(NC(=O)c2cccc(CCCOCCOCCOCCOCCC(=O)N(C)CCOCCOCCOCCOCCOCCOCCOC)c2)c(-c2cc(C(=O)NCc3cccc(C(F)(F)F)c3)ccn2)c1` [Example 259, 2-(5-(diethylamino)-2-(3-(23-methyl-24-oxo-2,5,8,11,14,17,20,27,30,33,36-undecaoxa-23-azanonatriacontan-39-yl)benzamido)phenyl)-N-(3-(trifluoromethyl)benzyl)isonicotinamide]: the IC50 in test [1] was 1 to 7.94 µM.
Still for that read-out and setting: under `CCN(CC)c1ccc(NC(=O)c2cccc(CCCOCCOCCOCCOCCC(=O)NCCOCCOCCOCCOCCOCCOCCOC)c2)c(-c2cc(C(=O)NCc3cccc(C(F)(F)F)c3)ccn2)c1` [Example 260, 2-(5-(diethylamino)-2-(3-(24-oxo-2,5,8,11,14,17,20,27,30,33,36-undecaoxa-23-azanonatriacontan-39-yl)benzamido)phenyl)-N-(3-(trifluoromethyl)benzyl)isonicotinamide] stands under 1 µM; under `CCN(CC)c1ccc(NC(=O)c2cccc(CCCOCCOCCOCCOCCNC(=O)c3cccc(CCCOCCOCCOCCOCCOCCOCCOCCOCCOC)c3)c2)c(-c2cc(C(=O)NCc3cccc(C(F)(F)F)c3)ccn2)c1` [Example 271, 2-(2-(3-(1-(3-(2,5,8,11,14,17,20,23,26-nonaoxanonacosan-29-yl)phenyl)-1-oxo-5,8,11,14-tetraoxa-2-azaheptadecan-17-yl)benzamido)-5-(diethylamino)phenyl)-N-(3-(trifluoromethyl)benzyl)isonicotinamide], under 1 µM; under `O=C(O)CCOCCOCCOCCOCCCc1cccc(C(=O)Nc2ccc(OC3CCC3)cc2-c2cc(C(=O)N[C@H]3CCCc4ccccc43)ccn2)c1` [Example 285, (S)-16-(3-((4-cyclobutoxy-2-(4-((1,2,3,4-tetrahydronaphthalen-1-yl)carbamoyl)pyridin-2-yl)phenyl)carbamoyl)phenyl)-4,7,10,13-tetraoxahexadecan-1-oic acid], under 1 µM.
Same read-out and setting: under `CCN(CC)c1ccc(NC(=O)c2cccc(CCCOCCOCCOCCOCCNS(=O)(=O)c3ccc(C(=O)N(C)CCOCCOCCOCCOCCOCCOCCOC)cc3)c2)c(-c2cc(C(=O)NCc3cccc(C(F)(F)F)c3)ccn2)c1` [Example 287, 2-(2-(3-(1-(4-(2,5,8,11,14,17,20-heptaoxadocosan-22-yl(methyl)carbamoyl)phenylsulfonamido)-3,6,9,12-tetraoxapentadecan-15-yl)benzamido)-5-(diethylamino)phenyl)-N-(3-(trifluoromethyl)benzyl)isonicotinamide] stands 1 to 7.94 µM; under `CCN(CC)c1ccc(NC(=O)c2cccc(CCCOCCOCCOCCOCCNS(=O)(=O)c3ccc(C(=O)N4CCN(CCOCCOCCOCCOCCOCCOCCOC)C(=O)C4)cc3)c2)c(-c2cc(C(=O)NCc3cccc(C(F)(F)F)c3)ccn2)c1` [Example 288, 2-(2-(3-(1-(4-(4-(2,5,8,11,14,17,20-heptaoxadocosan-22-yl)-3-oxopiperazine-1-carbonyl)phenylsulfonamido)-3,6,9,12-tetraoxapentadecan-15-yl)benzamido)-5-(diethylamino)phenyl)-N-(3-(trifluoromethyl)benzyl)isonicotinamide], 1 to 7.94 µM.
On the same count and under the same terms, the figure for `CCN(CC)c1ccc(NC(=O)c2cccc(CCCOCCOCCOCCOCCNS(=O)(=O)c3ccc(CCC(=O)NCCOCCOCCOCCOCCOCCOCCOC)cc3)c2)c(-c2cc(C(=O)NCc3cccc(C(F)(F)F)c3)ccn2)c1` [Example 296, 2-(5-(diethylamino)-2-(3-(1-(4-(24-oxo-2,5,8,11,14,17,20-heptaoxa-23-azahexacosan-26-yl)phenylsulfonamido)-3,6,9,12-tetraoxapentadecan-15-yl)benzamido)phenyl)-N-(3-(trifluoromethyl)benzyl)isonicotinamide] is 1 to 7.94 µM.
